Measured values taken from the NIST ThermoML archive (doi:10.1016/j.jct.2011.06.020).
± gives the expanded uncertainty stated by the source.

Assay: xn = mol fraction of the nth substance listed
Conditions: for surface tension liquid-gas: Tensiometer with plate; for viscosity / mass density: 101 kPa, Liquid; for viscosity: Capillary tube (Ostwald / Ubbelohde) method; for mass density: Vibrating tube method

CN1CCNCC1 [N-methylpiperazine] + O
Conditions	mass density [kg/m3]	surface tension liquid-gas [mN/m]	viscosity [mPa·s]
293.15 K, x1 = 0.1	–	47.64 ± 0.14	–
293.15 K, x1 = 0.1998	–	43.4 ± 0.13	–
293.15 K, x1 = 0.2994	–	38.68 ± 0.13	–
293.15 K, x1 = 0.4073	–	35.89 ± 0.14	–
293.15 K, x1 = 0.4983	–	34.37 ± 0.14	–
293.15 K, x1 = 0.5934	–	33.18 ± 0.15	–
293.15 K, x1 = 0.6979	–	32.35 ± 0.16	–
293.15 K, x1 = 0.7994	–	31.68 ± 0.17	–
293.15 K, x1 = 0.8978	–	31.15 ± 0.17	–
293.15 K, x1 = 1	–	30.65 ± 0.18	–
298.15 K, x1 = 0.0521	1001.67 ± 0.07	–	3.324 ± 0.073
298.15 K, x1 = 0.0725	1005.26 ± 0.08	–	5.564 ± 0.13
298.15 K, x1 = 0.1039	1009.54 ± 0.05	–	10.76 ± 0.24
298.15 K, x1 = 0.2091	1001.33 ± 0.08	–	35.24 ± 0.72
298.15 K, x1 = 0.3101	981.31 ± 0.12	–	36.42 ± 0.75
298.15 K, x1 = 0.4096	962.21 ± 0.13	–	23.48 ± 0.49
298.15 K, x1 = 0.5109	946.41 ± 0.14	–	13.36 ± 0.28
298.15 K, x1 = 0.608	933.25 ± 0.15	–	7.957 ± 0.17
298.15 K, x1 = 0.7065	922.31 ± 0.17	–	4.893 ± 0.1
298.15 K, x1 = 0.8069	913.72 ± 0.19	–	3.383 ± 0.071
298.15 K, x1 = 0.8819	906.76 ± 0.21	–	2.552 ± 0.054
298.15 K, x1 = 1	898.81 ± 0.23	–	1.87 ± 0.04
303.15 K, x1 = 0.0521	999.31 ± 0.06	–	2.752 ± 0.06
303.15 K, x1 = 0.0725	1002.36 ± 0.07	–	4.48 ± 0.1
303.15 K, x1 = 0.1	–	46.73 ± 0.13	–
303.15 K, x1 = 0.1039	1005.87 ± 0.06	–	8.223 ± 0.18
303.15 K, x1 = 0.1998	–	42.1 ± 0.13	–
303.15 K, x1 = 0.2091	996.94 ± 0.09	–	25.01 ± 0.51
303.15 K, x1 = 0.2994	–	38.07 ± 0.13	–
303.15 K, x1 = 0.3101	976.94 ± 0.12	–	25.74 ± 0.53
303.15 K, x1 = 0.4073	–	35.25 ± 0.14	–
303.15 K, x1 = 0.4096	957.88 ± 0.13	–	17.12 ± 0.35
303.15 K, x1 = 0.4983	–	33.82 ± 0.14	–
303.15 K, x1 = 0.5109	942.03 ± 0.14	–	10.17 ± 0.21
303.15 K, x1 = 0.5934	–	32.73 ± 0.15	–
303.15 K, x1 = 0.608	928.88 ± 0.15	–	6.246 ± 0.13
303.15 K, x1 = 0.6979	–	31.78 ± 0.16	–
303.15 K, x1 = 0.7065	917.92 ± 0.17	–	4.048 ± 0.085
303.15 K, x1 = 0.7994	–	31.16 ± 0.16	–
303.15 K, x1 = 0.8069	909.33 ± 0.19	–	2.835 ± 0.06
303.15 K, x1 = 0.8819	902.37 ± 0.21	–	2.188 ± 0.046
303.15 K, x1 = 0.8978	–	30.7 ± 0.17	–
303.15 K, x1 = 1	894.43 ± 0.23	30.34 ± 0.18	1.618 ± 0.034
308.15 K, x1 = 0.1	–	45.72 ± 0.13	–
308.15 K, x1 = 0.1998	–	40.74 ± 0.13	–
308.15 K, x1 = 0.2994	–	37.57 ± 0.13	–
308.15 K, x1 = 0.4073	–	34.71 ± 0.14	–
308.15 K, x1 = 0.4983	–	33.32 ± 0.14	–
308.15 K, x1 = 0.5934	–	32.06 ± 0.15	–
308.15 K, x1 = 0.6979	–	31.25 ± 0.16	–
308.15 K, x1 = 0.7994	–	30.8 ± 0.16	–
308.15 K, x1 = 0.8978	–	30.2 ± 0.17	–
308.15 K, x1 = 1	–	29.86 ± 0.18	–
313.15 K, x1 = 0.0521	994.17 ± 0.05	–	1.987 ± 0.043
313.15 K, x1 = 0.0725	996.21 ± 0.06	–	3.048 ± 0.068
313.15 K, x1 = 0.1	–	44.4 ± 0.13	–
313.15 K, x1 = 0.1039	998.34 ± 0.06	–	5.183 ± 0.11
313.15 K, x1 = 0.1998	–	39.61 ± 0.12	–
313.15 K, x1 = 0.2091	988.01 ± 0.09	–	13.66 ± 0.28
313.15 K, x1 = 0.2994	–	36.37 ± 0.13	–
313.15 K, x1 = 0.3101	968.03 ± 0.12	–	13.97 ± 0.29
313.15 K, x1 = 0.4073	–	34.03 ± 0.13	–
313.15 K, x1 = 0.4096	949.09 ± 0.13	–	9.817 ± 0.2
313.15 K, x1 = 0.4983	–	32.66 ± 0.14	–
313.15 K, x1 = 0.5109	933.18 ± 0.14	–	6.25 ± 0.13
313.15 K, x1 = 0.5934	–	31.58 ± 0.15	–
313.15 K, x1 = 0.608	920.04 ± 0.15	–	4.118 ± 0.086
313.15 K, x1 = 0.6979	–	30.76 ± 0.15	–
313.15 K, x1 = 0.7065	909.07 ± 0.17	–	2.846 ± 0.06
313.15 K, x1 = 0.7994	–	30.4 ± 0.16	–
313.15 K, x1 = 0.8069	900.47 ± 0.19	–	2.091 ± 0.044
313.15 K, x1 = 0.8819	893.54 ± 0.21	–	1.673 ± 0.035
313.15 K, x1 = 0.8978	–	29.71 ± 0.17	–
313.15 K, x1 = 1	885.62 ± 0.23	29.23 ± 0.18	1.302 ± 0.028
318.15 K, x1 = 0.1	–	43.02 ± 0.13	–
318.15 K, x1 = 0.1998	–	38.31 ± 0.12	–
318.15 K, x1 = 0.2994	–	35.73 ± 0.13	–
318.15 K, x1 = 0.4073	–	33.43 ± 0.13	–
318.15 K, x1 = 0.4983	–	32.08 ± 0.14	–
318.15 K, x1 = 0.5934	–	30.99 ± 0.14	–
318.15 K, x1 = 0.6979	–	30.23 ± 0.15	–
318.15 K, x1 = 0.7994	–	29.83 ± 0.16	–
318.15 K, x1 = 0.8978	–	29.14 ± 0.17	–
318.15 K, x1 = 1	–	28.78 ± 0.18	–
323.15 K, x1 = 0.1	–	41.72 ± 0.13	–
323.15 K, x1 = 0.1998	–	37.83 ± 0.12	–
323.15 K, x1 = 0.2994	–	34.87 ± 0.13	–
323.15 K, x1 = 0.4073	–	32.92 ± 0.13	–
323.15 K, x1 = 0.4983	–	31.67 ± 0.14	–
323.15 K, x1 = 0.5934	–	30.57 ± 0.14	–
323.15 K, x1 = 0.6979	–	29.67 ± 0.15	–
323.15 K, x1 = 0.7994	–	29.24 ± 0.16	–
323.15 K, x1 = 0.8978	–	28.53 ± 0.16	–
323.15 K, x1 = 1	–	28.11 ± 0.17	–
325.15 K, x1 = 0.0521	988.47 ± 0.05	–	1.5 ± 0.032
325.15 K, x1 = 0.0725	989.64 ± 0.06	–	2.188 ± 0.048
325.15 K, x1 = 0.1039	990.55 ± 0.07	–	–
325.15 K, x1 = 0.2091	978.98 ± 0.1	–	8.128 ± 0.17
325.15 K, x1 = 0.3101	958.91 ± 0.12	–	8.263 ± 0.17
325.15 K, x1 = 0.4096	940.1 ± 0.13	–	–
325.15 K, x1 = 0.5109	924.16 ± 0.14	–	4.171 ± 0.087
325.15 K, x1 = 0.608	911.05 ± 0.15	–	2.876 ± 0.06
325.15 K, x1 = 0.7065	900.09 ± 0.17	–	2.076 ± 0.044
325.15 K, x1 = 0.8069	891.49 ± 0.19	–	1.607 ± 0.034
325.15 K, x1 = 0.8819	884.6 ± 0.21	–	1.324 ± 0.028
325.15 K, x1 = 1	876.71 ± 0.23	–	1.065 ± 0.023
333.15 K, x1 = 0.0521	982.25 ± 0.06	–	1.18 ± 0.025
333.15 K, x1 = 0.0725	982.66 ± 0.06	–	1.651 ± 0.036
333.15 K, x1 = 0.1	–	39.98 ± 0.13	–
333.15 K, x1 = 0.1039	982.5 ± 0.08	–	2.474 ± 0.052
333.15 K, x1 = 0.1998	–	36.47 ± 0.12	–
333.15 K, x1 = 0.2091	969.64 ± 0.1	–	5.188 ± 0.11
333.15 K, x1 = 0.2994	–	33.61 ± 0.12	–
333.15 K, x1 = 0.3101	949.58 ± 0.12	–	5.244 ± 0.11
333.15 K, x1 = 0.4073	–	31.68 ± 0.13	–
333.15 K, x1 = 0.4096	930.91 ± 0.13	–	4.021 ± 0.084
333.15 K, x1 = 0.4983	–	30.32 ± 0.14	–
333.15 K, x1 = 0.5109	914.98 ± 0.14	–	2.894 ± 0.061
333.15 K, x1 = 0.5934	–	29.76 ± 0.14	–
333.15 K, x1 = 0.608	901.91 ± 0.16	–	2.109 ± 0.044
333.15 K, x1 = 0.6979	–	28.76 ± 0.15	–
333.15 K, x1 = 0.7065	891 ± 0.17	–	1.592 ± 0.034
333.15 K, x1 = 0.7994	–	27.93 ± 0.15	–
333.15 K, x1 = 0.8069	882.42 ± 0.19	–	1.277 ± 0.027
333.15 K, x1 = 0.8819	875.57 ± 0.21	–	1.09 ± 0.023
333.15 K, x1 = 0.8978	–	27.7 ± 0.16	–
333.15 K, x1 = 1	867.73 ± 0.24	27.17 ± 0.17	0.9 ± 0.019
343.15 K, x1 = 0.0521	975.55 ± 0.06	–	0.942 ± 0.02
343.15 K, x1 = 0.0725	975.29 ± 0.06	–	1.281 ± 0.027
343.15 K, x1 = 0.1039	974.18 ± 0.08	–	1.827 ± 0.038
343.15 K, x1 = 0.2091	960.1 ± 0.11	–	3.514 ± 0.073
343.15 K, x1 = 0.3101	940.04 ± 0.12	–	3.54 ± 0.074
343.15 K, x1 = 0.4096	921.51 ± 0.13	–	2.81 ± 0.059
343.15 K, x1 = 0.5109	905.65 ± 0.14	–	2.12 ± 0.044
343.15 K, x1 = 0.608	892.65 ± 0.16	–	1.607 ± 0.034
343.15 K, x1 = 0.7065	881.79 ± 0.17	–	1.264 ± 0.027
343.15 K, x1 = 0.8069	873.22 ± 0.19	–	1.074 ± 0.023
343.15 K, x1 = 0.8819	866.45 ± 0.21	–	0.906 ± 0.019
343.15 K, x1 = 1	858.66 ± 0.23	–	0.768 ± 0.016
